Literature values in publication PMC6245954 (European journal of medicinal chemistry, 2018).

Tests used:
prostate cancer = settings: cited from earlier work
[1] = tested on: two prostate cancer xenografts; settings: even at the highest dose (0.73 mmol/kg); cited from earlier work
[2] = in words; cited from earlier work

In the case of COc1cc(-c2oc3ccccc3c(=O)c2O)cc(OC)c1OC [Compd 3, 3′,4′,5′-trimethoxyflavonol], the “fold greater potency than quercetin (1) and fisetin (2)” value (prostate cancer) is listed as 5- to 16 fold, the “in vivo antitumor efficacy” value [1] is listed as “very moderate” and the bioavailability [2] is listed as “poor bioavailability”.
